Among the data in patent publication US9518052B2, “Pyrazolopyridines and pyrazolopyrimidines” (Pfizer Inc., priority 2014, dated 2016) are IC50 values, retold here.

Where a name gives a salt, the structure may show the parent alone.

Common to all, as to assay type: biochemical
Settings in all cases: Caliper assay at 1 mM ATP

In one assay the target is JAK2 (Homo sapiens (Human), UniProt O60674). Put plainly: JAK Caliper Enzyme Assay at 1 mM ATP (JAK2). The method, then: (§1) JAK Caliper Enzyme Assay at 1 mM ATP
JAK2, sequence (O60674 whole entry, species assumed): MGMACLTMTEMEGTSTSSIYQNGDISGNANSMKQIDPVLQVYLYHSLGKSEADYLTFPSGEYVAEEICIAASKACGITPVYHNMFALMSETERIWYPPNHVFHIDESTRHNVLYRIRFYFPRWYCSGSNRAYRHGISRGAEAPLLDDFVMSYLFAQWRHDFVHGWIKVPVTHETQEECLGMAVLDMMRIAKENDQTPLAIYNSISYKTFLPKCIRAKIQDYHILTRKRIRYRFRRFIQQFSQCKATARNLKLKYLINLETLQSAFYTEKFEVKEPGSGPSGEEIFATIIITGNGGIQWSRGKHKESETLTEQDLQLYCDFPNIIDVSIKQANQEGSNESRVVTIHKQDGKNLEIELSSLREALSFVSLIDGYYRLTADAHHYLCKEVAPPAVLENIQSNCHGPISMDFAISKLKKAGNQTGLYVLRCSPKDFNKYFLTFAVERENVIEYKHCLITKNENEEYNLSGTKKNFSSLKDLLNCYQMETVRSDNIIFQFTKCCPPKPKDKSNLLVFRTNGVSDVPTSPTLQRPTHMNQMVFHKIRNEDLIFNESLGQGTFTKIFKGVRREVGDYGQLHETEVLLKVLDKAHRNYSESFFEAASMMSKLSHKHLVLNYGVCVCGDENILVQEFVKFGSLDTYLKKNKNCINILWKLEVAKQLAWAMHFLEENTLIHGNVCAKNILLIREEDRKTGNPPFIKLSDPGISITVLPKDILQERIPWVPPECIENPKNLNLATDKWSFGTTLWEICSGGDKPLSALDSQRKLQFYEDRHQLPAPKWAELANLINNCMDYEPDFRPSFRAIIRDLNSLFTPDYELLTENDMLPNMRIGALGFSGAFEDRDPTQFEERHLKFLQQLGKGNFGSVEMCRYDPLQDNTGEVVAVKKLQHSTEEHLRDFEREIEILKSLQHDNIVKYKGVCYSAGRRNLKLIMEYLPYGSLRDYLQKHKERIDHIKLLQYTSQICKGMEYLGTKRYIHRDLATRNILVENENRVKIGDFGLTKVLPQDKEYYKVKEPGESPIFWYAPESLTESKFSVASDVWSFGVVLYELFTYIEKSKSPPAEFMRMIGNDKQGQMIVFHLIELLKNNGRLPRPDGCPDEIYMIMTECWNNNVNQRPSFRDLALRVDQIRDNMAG
(§2) Test article was solubilized in dimethyl sulfoxide (DMSO) to a stock concentration of 30 mM. An 11-point half log dilution series was created in DMSO with a top concentration of 600 μM. […] The compound plates were diluted 1 to 60 resulting in a top final assay compound concentration of 10 μM and a 2% DMSO concentration.
(§3) Test article and assay controls were added to a 384-well plate. Reaction mixtures contained 20 mM HEPES, pH 7.4, 10 mM magnesium chloride, 0.01% bovine serum albumin (BSA), 0.0005% Tween 20, 1 mM ATP and 1 μM peptide substrate. […] Enzyme concentrations and incubation times were optimized for each new enzyme preps and were modified slightly over time to ensure 20%-30% phosphorylation. The assays were stopped with a final concentration of 10 mM EDTA, 0.1% Coating Reagent and 100 mM HEPES, pH=7.4. The assay plates were placed on a Caliper Life Science Lab Chip 3000 (LC3000) instrument, and each well was sampled using appropriate separation conditions to measure the unphosphorylated and phosphorylated peptide.

A further assay deals with JAK3 (Homo sapiens (Human), UniProt P52333). Briefly: JAK Caliper Enzyme Assay at 1 mM ATP (JAK3). The procedure: as §1, §2, §3
JAK3, sequence (P52333 whole entry, species assumed): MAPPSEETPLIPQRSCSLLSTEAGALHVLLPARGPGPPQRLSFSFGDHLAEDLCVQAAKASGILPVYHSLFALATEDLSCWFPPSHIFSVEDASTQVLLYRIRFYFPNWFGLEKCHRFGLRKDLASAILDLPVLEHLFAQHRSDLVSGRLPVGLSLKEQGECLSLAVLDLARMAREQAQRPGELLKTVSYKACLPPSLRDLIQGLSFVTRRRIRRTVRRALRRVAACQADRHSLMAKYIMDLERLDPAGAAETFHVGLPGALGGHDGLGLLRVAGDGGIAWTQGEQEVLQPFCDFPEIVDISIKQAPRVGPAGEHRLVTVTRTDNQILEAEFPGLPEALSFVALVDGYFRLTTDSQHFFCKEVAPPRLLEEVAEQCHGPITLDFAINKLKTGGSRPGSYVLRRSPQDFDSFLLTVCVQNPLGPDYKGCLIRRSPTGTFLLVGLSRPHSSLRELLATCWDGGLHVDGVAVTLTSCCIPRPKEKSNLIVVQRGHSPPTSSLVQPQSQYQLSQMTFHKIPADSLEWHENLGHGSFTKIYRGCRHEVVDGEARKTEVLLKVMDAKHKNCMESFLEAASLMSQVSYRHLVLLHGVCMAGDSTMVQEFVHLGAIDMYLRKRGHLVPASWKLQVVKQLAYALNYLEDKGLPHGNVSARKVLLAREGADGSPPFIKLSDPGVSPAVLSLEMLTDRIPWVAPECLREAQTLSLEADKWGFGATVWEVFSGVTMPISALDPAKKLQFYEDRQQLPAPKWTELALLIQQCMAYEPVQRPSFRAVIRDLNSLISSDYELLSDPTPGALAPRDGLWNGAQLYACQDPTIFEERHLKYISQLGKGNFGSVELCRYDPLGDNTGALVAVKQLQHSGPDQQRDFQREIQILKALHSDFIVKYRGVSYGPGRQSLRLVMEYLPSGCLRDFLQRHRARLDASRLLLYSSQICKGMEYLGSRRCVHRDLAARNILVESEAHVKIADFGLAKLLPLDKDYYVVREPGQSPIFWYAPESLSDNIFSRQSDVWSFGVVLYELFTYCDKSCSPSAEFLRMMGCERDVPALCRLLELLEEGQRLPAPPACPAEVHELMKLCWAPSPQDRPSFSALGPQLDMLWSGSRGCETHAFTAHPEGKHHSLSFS
A further assay deals with JAK1 (Homo sapiens (Human), UniProt P23458). Put plainly: JAK Caliper Enzyme Assay at 1 mM ATP (JAK1). The procedure:
as §1, §2, §3

The next assay addresses TYK2 (Homo sapiens (Human), UniProt P29597). Briefly: JAK Caliper Enzyme Assay at 1 mM ATP (TYK2). The procedure:
as §1, §2, §3

JAK1, sequence (P23458 whole entry, species assumed): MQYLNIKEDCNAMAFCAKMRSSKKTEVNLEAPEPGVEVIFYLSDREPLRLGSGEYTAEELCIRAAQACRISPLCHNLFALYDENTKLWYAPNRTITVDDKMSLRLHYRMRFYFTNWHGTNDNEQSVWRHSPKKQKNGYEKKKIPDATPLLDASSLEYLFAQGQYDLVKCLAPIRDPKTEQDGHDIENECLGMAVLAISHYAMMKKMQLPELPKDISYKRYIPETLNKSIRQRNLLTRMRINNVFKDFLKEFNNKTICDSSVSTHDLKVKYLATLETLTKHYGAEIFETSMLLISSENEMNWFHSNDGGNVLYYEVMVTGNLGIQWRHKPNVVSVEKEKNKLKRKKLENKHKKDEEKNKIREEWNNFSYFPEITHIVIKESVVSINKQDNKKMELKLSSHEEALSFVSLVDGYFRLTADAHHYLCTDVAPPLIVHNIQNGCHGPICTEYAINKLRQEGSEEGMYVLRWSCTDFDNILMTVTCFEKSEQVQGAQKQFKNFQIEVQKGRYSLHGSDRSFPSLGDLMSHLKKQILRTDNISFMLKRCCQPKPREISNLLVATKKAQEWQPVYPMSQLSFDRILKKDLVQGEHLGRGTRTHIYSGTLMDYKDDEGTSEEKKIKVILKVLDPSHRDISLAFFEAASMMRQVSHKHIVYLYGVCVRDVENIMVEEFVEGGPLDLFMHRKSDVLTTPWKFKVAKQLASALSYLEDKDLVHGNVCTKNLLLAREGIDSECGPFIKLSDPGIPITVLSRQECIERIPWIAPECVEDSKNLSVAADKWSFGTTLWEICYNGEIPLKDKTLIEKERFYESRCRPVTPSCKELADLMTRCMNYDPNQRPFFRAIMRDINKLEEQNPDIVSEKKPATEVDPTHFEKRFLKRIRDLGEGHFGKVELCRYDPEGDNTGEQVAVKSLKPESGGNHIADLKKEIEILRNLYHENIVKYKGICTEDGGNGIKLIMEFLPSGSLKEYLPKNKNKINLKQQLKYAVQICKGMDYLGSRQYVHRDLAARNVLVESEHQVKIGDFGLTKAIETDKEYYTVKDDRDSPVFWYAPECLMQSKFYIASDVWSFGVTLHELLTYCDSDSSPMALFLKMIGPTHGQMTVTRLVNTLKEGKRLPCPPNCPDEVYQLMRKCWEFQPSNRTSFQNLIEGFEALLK
TYK2, sequence (P29597 whole entry, species assumed): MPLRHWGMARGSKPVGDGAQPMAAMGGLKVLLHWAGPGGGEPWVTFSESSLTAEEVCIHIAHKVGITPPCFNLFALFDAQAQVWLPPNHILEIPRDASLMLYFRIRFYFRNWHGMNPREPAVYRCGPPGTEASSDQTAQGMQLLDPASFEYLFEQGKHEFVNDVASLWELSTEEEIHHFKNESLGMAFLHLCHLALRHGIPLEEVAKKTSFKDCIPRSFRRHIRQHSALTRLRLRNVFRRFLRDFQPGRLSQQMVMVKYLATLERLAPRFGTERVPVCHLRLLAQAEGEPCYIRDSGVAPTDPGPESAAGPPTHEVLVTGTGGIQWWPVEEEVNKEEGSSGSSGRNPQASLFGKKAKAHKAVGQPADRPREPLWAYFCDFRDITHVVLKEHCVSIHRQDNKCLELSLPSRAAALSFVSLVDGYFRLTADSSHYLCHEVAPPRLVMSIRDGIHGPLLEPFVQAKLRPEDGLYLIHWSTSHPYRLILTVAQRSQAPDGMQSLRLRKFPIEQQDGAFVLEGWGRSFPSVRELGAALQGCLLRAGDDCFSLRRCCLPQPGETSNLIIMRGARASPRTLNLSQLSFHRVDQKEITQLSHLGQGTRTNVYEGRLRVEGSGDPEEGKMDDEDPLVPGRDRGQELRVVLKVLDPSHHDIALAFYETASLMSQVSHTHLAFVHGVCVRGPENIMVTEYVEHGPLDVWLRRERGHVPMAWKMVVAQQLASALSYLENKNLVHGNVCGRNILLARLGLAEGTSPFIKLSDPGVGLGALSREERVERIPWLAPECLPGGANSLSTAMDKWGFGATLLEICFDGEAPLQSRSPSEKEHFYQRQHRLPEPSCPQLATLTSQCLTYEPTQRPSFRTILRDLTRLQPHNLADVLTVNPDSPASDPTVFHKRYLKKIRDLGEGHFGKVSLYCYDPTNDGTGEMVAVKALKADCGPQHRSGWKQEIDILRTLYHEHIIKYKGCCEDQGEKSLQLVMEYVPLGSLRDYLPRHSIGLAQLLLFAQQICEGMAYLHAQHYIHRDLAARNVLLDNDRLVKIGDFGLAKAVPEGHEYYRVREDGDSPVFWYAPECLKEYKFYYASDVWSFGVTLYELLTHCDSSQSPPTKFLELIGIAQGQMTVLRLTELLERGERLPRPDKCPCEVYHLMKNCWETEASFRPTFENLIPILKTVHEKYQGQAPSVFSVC

In the case of `CN(c1ncc(F)cc1CNc1nc(-c2cc(F)c(O)cc2CC(F)(F)F)cc2[nH]nc(C(N)=O)c12)S(C)(=O)=O` [Example 78, 6-[5-Fluoro-4-hydroxy-2-(2,2,2-trifluoroethyl)phenyl]-4-[({5-fluoro-2-[methyl(methyl-sulfonyl)amino]pyridin-3-yl}methyl)amino]-1H-pyrazolo[4,3-c]pyridine-3-carboxamide], the half-maximal inhibitory concentration (IC50) against JAK2 was found to be 39.4 nM; on JAK3 it was 89.9 nM; on JAK1, 5.9 nM; against TYK2 it was 930 nM.

`CCN(c1ccc(O)cc1CNc1nc(-c2cc(F)c(O)cc2CC(F)(F)F)cc2[nH]nc(C(N)=O)c12)S(=O)(=O)c1ccccc1` [Example 43, 4-({2-[ethyl(phenyl-sulfonyl)amino]-5-hydroxybenzyl}amino)-6-[5-fluoro-4-hydroxy-2-(2,2,2-trifluoroethyl)-phenyl]-1H-pyrazolo[4,3-c]pyridine-3-carboxamide]: the IC50 turned out to be 302 nM at JAK2, 1070 nM against JAK3, 55.1 nM against JAK1 and 439 nM against TYK2.

For `CCN(c1ccccc1CNc1nc(-c2cc(F)c(O)cc2CC(F)(F)F)cc2[nH]nc(C(=O)NC)c12)S(=O)(=O)CC` [Example 1, 4-({2-[Ethyl(ethylsulfonyl)amino]benzyl}amino)-6-[5-fluoro-4-hydroxy-2-(2,2,2-trifluoroethyl)phenyl]-N-methyl-1H-pyrazolo[4,3-c]pyridine-3-carboxamide], the concentration for half-maximal inhibition (IC50) was determined as 38.1 nM against JAK2, 177 nM on JAK3, 8 nM against JAK1 and 36.5 nM at TYK2.

Regarding `CCc1cc(O)c(F)cc1-c1cc2[nH]ncc2c(N(CCN2CCOCC2)Cc2ccccc2N(C)S(C)(=O)=O)n1` [Example 140, N-[2-({[6-(2-ethyl-5-fluoro-4-hydroxyphenyl)-1H-pyrazolo[4,3-c]pyridin-4-yl][2-(morpholin-4-yl)ethyl]amino}methyl)phenyl]-N-methylmethanesulfonamide], the IC50 against JAK2 came out at 53.5 nM; on JAK3 it was 131 nM; at JAK1, 18.1 nM.

As to `CCc1cc(O)ccc1-c1cc2[nH]ncc2c(N2CCC(OC)CC2)n1` [Example 128, 3-ethyl-4-[4-(4-methoxypiperidin-1-yl)-1H-pyrazolo[4,3-c]pyridin-6-yl]phenol diethylamine salt], the figures for the IC50 against JAK2, on JAK1 and against TYK2 were 12.6 nM, 3.6 nM and 514 nM, respectively.

In the case of `CCCCN(c1ccccc1CNc1nc(-c2cc(F)c(O)cc2CC)cc2[nH]ncc12)S(C)(=O)=O` [Example 139], the IC50 is 16.7 nM against JAK2, 27.5 nM against JAK3 and 1990 nM on TYK2.

In the case of “N-ethyl-N-[2-({[6-(2-ethyl-5-fluoro-4-hydroxyphenyl)-1H-pyrazolo[4,3-c]pyridin-4-yl]amino}methyl)phenyl]ethanesulfonamide [Example 138]”, the IC50 came to 2.6 nM at JAK2, 14.2 nM on JAK3 and 4.8 nM at TYK2.

`CNC(=O)c1n[nH]c2cc(-c3cc(F)c(O)cc3CC(F)(F)F)nc(NCc3cnccc3N(C)S(C)(=O)=O)c12` [Example 48, 6-[5-fluoro-4-hydroxy-2-(2,2,2-trifluoroethyl)phenyl]-N-methyl-4-[({4-[methyl(methylsulfonyl)amino]pyridin-3-yl}methyl)amino]-1H-pyrazolo[4,3-c]pyridine-3-carboxamide]: the concentration for half-maximal inhibition (IC50) against JAK2 was 188 nM; against JAK3, 148 nM; on JAK1 it was 67.6 nM.

Take `CCc1cc(O)ccc1-c1cc2[nH]ncc2c(NCc2c(C)cccc2N(C)S(C)(=O)=O)n1` [Example 127, N-[2-({[6-(2-ethyl-4-hydroxyphenyl)-1H-pyrazolo[4,3-c]pyridin-4-yl]amino}methyl)-3-methylphenyl]-N-methylmethanesulfonamide diethylamine salt]: the values for the IC50 against JAK2, against JAK1 and against TYK2 were 14.9 nM, 6 nM and 625 nM, respectively.
